# Laboratory results: patent publication US5703129A, “5-amino-6-cyclohexyl-4-hydroxy-hexanamide derivatives as inhibitors of β-amyloid protein production” (Bristol-Myers Squibb Company, priority 1996, dated 1997)
# Where a name gives a salt, the structure may show the parent alone.
# Molecular target: T1, γ-Secretase (Homo sapiens, UniProt P49768)
# T1 construct: transfected H4 (human neuroglioma) cells stably expressing constructs containing wild-type and mutant forms of β-APP; endogenous in cells; host or cells: H4 human neuroglioma cells, stably transfected with beta-APP (the substrate, not the enzyme)
# Assay: Inhibition of γ-secretase: ELISA of β-AP made by transfected H4 cells in culture
# Type: cell-based
# Conditions: H4 (human neuroglioma) cells expressing β-APP (Swedish variant typically), approximately 16 hours incubation, β-AP in conditioned medium by ELISA
# Source text: Production and detection of β-AP made by cells in culture. The use of transfected H4 (human neuroglioma) cells stably expressing constructs containing wild-type and mutant forms of β-APP have been used to identify inhibitors of β-AP production. The Swedish variant of β-APP produces 5-7 fold more β-AP than the wild type and is typically used due to its enhanced signal. […] The capture antibody is typically a mouse monoclonal (IgG1/kβ-APPa). The antibody recognizes the carboxyl terminal epitope of β-AP. The specificity of the capture antibody ensures measurement of β-AP without interference by other secreted β-APP fragments that share amino acid sequence (β-AP1-16) with β-AP. The detecting antibody is typically an affinity purified rabbit polyclonal antibody, specific for the amino terminus of β-AP. In the cell-based assay conditioned medium from H4 cells is tested by ELISA for the quantity of β-AP present. The cell-based assay can be used to identify compounds that inhibit β-AP production. The assay should detect agents that inhibit cleavage at the β-secretase and/or the γ-secretase cleavage site as well as detecting any agent that interferes with the production and/or release of β-AP.
# A typical ELISA-based assay requires plating of the transfected cells at a density sufficient for the rapid detection of the secreted β-AP (experimentally predetermined for a particular stable cell population) in a 96-well format. Cells are plated for at least six hours prior to the introduction of the test compound at which time the growth medium is replaced by fresh medium containing the agent to be tested. Test agents may typically consist of synthetic compounds, secondary metabolites from bacterial or fungal fermentation extracts, or extracts from plant or marine samples. All synthetic agents are initially screened at doses ranging from 10-100 μM or in the case of extracts at sufficient dilution to minimize cytotoxicity. Incubation of the cells with the test agent will continue for approximately 16 hours at which time equal aliquots of media from each sample well is removed and placed into a previously prepared ELISA plate for β-AP quantitation. The ELISA is carried out in a manner described by others (Haass, et al., 1992; Hawlow and Lane, 1988) and the β-AP signal quantitated. Results are obtained by analysis of the ELISA plate following development and comparison to the mock treated cell populations and samples in which known amounts of β-AP were added to construct a standard concentration curve. […] If a compound is found to be active, then a dose response experiment is performed to determine the lowest dose of compound necessary to elicit the inhibition of the production of β-AP.
row,Activity Rating (Inhibition of γ-Secretase),SMILES
1,+++ (+++ < = 10),"CSCCCNC(=O)[C@@H](C[C@H](O)[C@H](CC1CCCCC1)NCCCC(C)C)C(C)C (relative stereo) [Example 32, [αS-(αR*,γR*,δR*)]γ-hydroxy-α-(1-methylethyl)-δ-[(4-methylpentyl)amino]-N-[3-(methylthio)propyl]cyclohexanehexanamide hydrochloride]"
2,+++ (+++ < = 10),"CCCCNC(=O)[C@H](C)C[C@H](O)[C@H](CC1CCCCC1)NCCCC(C)C (relative stereo) [Example 19, [αS-(αR*,γR*,δR*)]N-Butyl-γ-hydroxy-α-methyl-δ-[(4-methylpentyl)amino]cyclohexanehexanamide hydrochloride]"
3,++ (++ > 10 & < = 25),"CCCCNC(=O)[C@@H](C[C@H](O)[C@H](CC1CCCCC1)NCc1cccc(OC)c1)C(C)C (relative stereo) [Example 37, [αS-(αR*,γR*,δR*)]N-Butyl-γ-hydroxy-δ-[[(3-methoxyphenyl)methyl]amino]-α-(1-methylethyl)cyclohexanehexanamide hydrochloride]"
4,+++ (+++ < = 10),"CCCCNC(=O)[C@@H](C[C@H](O)[C@H](CC1CCCCC1)NCCCC(C)C)C(C)C (relative stereo) [Example 20, [αS-(αR*,γR*,δR*)]N-Butyl-γ-hydroxy-α-(1-methylethyl)-δ-[(4-methylpentyl)amino]cyclohexanehexanamide hydrochloride]"
5,+++ (+++ < = 10),"CC(C)CNC(=O)[C@@H](C[C@H](O)[C@H](CC1CCCCC1)NC1CCC(C)CC1)C(C)C (relative stereo) [Example 40, [αS(αR*,γR*,δR*)]-γ-Hydroxy-δ-[(4-methylcyclohexyl)amino]-α-(1-methylethyl)-N-(2-methylpropyl)cyclohexanehexanamide]"
6,+++ (+++ < = 10),"CC(C)CCC(C)N[C@@H](CC1CCCCC1)[C@@H](O)C[C@H](C(=O)NCC(C)C)C(C)C (relative stereo) [Example 41, [αS(αR*,γR*,δR*)]-γ-Hydroxy-δ-[(1,4-dimethylpentyl)amino]-α-(1-methylethyl)-N-(2-methylpropyl)cyclohexanehexanamide hydrochloride]"
7,+++ (+++ < = 10),"C=CC[C@H](C[C@H](O)[C@H](CC1CCCCC1)NCCCC(C)C)C(=O)NCCCC (relative stereo) [Example 23, [αS-(αR*,γR*,δR*)]N-Butyl-γ-hydroxy-δ-[(4-methylpentyl)amino]-α-(2-propenyl)cyclohexanehexanamide hydrochloride]"
